# According to patent EP0747355A1, “NOVEL CARBAMATE DERIVATIVE AND MEDICINAL COMPOSITION CONTAINING THE SAME” (priority 1994, dated 1995):
# Where two headings read alike, the source gives them in different places.
# Key:
# [1] = test system: rhythmic bladder contraction in rat; experiment: Test on rhythmic bladder contraction in rat (in vivo muscarinic antagonism); set-up: species or system Wistar female rats
# [2] = test system: salivary secretion in rat; experiment: Test on salivary secretion in rat (oxotremorine-induced); format: in vivo, Male Wistar rats
# [3] = biological target: T1, muscarinic M2 receptors (Rattus norvegicus, UniProt P10980); experiment: biochemical; format: binding, Wistar male rats
# T1 sequence (P10980 1-466): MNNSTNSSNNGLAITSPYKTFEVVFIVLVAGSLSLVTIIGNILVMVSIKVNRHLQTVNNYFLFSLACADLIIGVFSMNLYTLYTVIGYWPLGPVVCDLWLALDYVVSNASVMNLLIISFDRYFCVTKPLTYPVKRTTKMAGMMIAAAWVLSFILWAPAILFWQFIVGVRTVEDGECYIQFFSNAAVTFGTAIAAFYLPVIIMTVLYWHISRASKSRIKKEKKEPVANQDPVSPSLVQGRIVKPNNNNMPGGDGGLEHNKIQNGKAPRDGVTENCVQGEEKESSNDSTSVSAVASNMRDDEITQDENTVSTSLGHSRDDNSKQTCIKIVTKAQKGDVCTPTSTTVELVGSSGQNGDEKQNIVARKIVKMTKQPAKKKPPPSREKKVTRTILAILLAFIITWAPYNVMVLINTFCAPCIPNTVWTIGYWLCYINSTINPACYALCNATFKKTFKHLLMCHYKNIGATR
# [4] = biological target: T2, Muscarinic M3 receptor (Rattus norvegicus, UniProt P08483); experiment: Muscarinic M3 receptor binding test (submandibular gland membranes, [3H]-N-methylscopolamine); set-up: species or system Wistar male rats
# T2 construct: except that submandibular gland membranes were used and [^3H]-N-methylscopolamine was used as the labeled ligand; from tissue; host or cells: rat submandibular gland membranes (Wistar male rats, Nippon SLC)
# T2 sequence (P08483 whole entry): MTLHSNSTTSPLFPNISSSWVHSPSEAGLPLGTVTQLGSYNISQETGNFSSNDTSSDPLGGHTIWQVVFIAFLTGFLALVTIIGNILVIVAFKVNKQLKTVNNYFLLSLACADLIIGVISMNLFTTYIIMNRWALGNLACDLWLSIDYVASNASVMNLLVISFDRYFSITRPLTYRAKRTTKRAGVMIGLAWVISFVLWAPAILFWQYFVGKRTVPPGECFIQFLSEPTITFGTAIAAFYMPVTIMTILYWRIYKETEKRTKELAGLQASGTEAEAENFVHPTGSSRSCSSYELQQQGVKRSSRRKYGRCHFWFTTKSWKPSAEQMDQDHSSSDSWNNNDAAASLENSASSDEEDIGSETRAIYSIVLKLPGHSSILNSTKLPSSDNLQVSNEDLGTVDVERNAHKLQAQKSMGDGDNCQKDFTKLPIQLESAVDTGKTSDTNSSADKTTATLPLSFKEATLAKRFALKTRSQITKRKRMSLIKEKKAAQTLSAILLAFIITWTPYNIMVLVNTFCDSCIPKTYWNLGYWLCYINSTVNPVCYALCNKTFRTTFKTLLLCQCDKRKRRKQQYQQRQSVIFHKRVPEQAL
# [5] = test system: bronchospasm in guinea pig; format: in vivo, Hartley male guinea pig
# [6] = urethane anesthesia, cumulative i.v. administration, 30% inhibition of peak bladder contractions
# [7] = oxotremorine 0.8 µmol/kg 15 minutes after compound, saliva of 5 minutes
# [8] = read-out: Ki (nM) M2 binding Test
# [9] = rat submandibular gland membranes, [3H]-N-methylscopolamine, read-out: Ki (nM) M3 binding Test
# [10] = methacholine 5 µg/kg i.v., 3 minutes after compound i.v.
Molecule,"Rhythmic Bladder Contraction Test ED30 (mg/kg i.v.) [1, 6]","Salivary Secretion Test ED50 (mg/kg i.v.) [2, 7]",M2/M3 ([4]; ratio of Ki M2 to Ki M3),"Bronchospasm Test ID50 (mg/kg i.v.) ([5]; in vivo, iv)",Ki [3],Ki [4],further results
3-Quinuclidinyl N-[2-(2-cyclohexen-1-yl)phenyl]carbamate hemioxalate [Example 61],0.029 mg/kg i.v.,0.14 mg/kg i.v.,–,–,–,–,–
3-quinuclidinyl N-[2-(1H-pyrrol-1-yl)phenyl]carbamate monohydrochloride [Example 2],0.018 mg/kg i.v.,0.11 mg/kg i.v.,20.4,–,–,–,"Ki [3, 8]: 100 nM; Ki [4, 9]: 4.89 nM"
"CN1[C@@H]2CC[C@H]1C[C@@H](OC(=O)C(CO)c1ccccc1)C2 (some centres unmarked) [Atropine, reference compound]",–,–,–,0.0008 mg/kg i.v.,–,–,"Rhythmic Bladder Contraction Test ED30 (mg/kg i.v.) ([1]; in vivo, iv): 0.009 mg/kg i.v.; Salivary Secretion Test ED50 (mg/kg i.v.) ([2]; in vivo, iv): 0.0084 mg/kg i.v."
"Cl.O=C(Nc1ccccc1-c1ccccc1)OC1CN2CCC1CC2 (centres unmarked) [Example 1, 3-quinuclidinyl N-(2-biphenylyl)carbamate monohydrochloride]",–,–,27.6,–,25.9 nM,0.94 nM,"Bronchospasm Test ID50 (mg/kg i.v.) [5, 10]: 0.0045 mg/kg i.v."
"C[N+]12CCC(CC1)C(OC(=O)Nc1ccccc1-c1ccccc1)C2.[I-] (centres unmarked) [Example 3, 3-[[N-(2-biphenylyl)carbamoyl]oxy]-1-methylquinuclidinium iodide]",–,–,25.7,–,14.4 nM,0.56 nM,"Bronchospasm Test ID50 (mg/kg i.v.) [5, 10]: 0.0038 mg/kg i.v."
"Cl.O=C(Nc1ccccc1-c1ccccc1)OC12CCN(CC1)CC2 [Example 4, 4-quinuclidinyl N-(2-biphenylyl)carbamate monohydrochloride]",–,–,–,0.0082 mg/kg i.v.,5.89 nM,0.39 nM,"M2/M3 [4]: 15.2; Rhythmic Bladder Contraction Test ED30 (mg/kg i.v.) ([1]; in vivo, iv): 0.014 mg/kg i.v.; Salivary Secretion Test ED50 (mg/kg i.v.) ([2]; in vivo, iv): 0.10 mg/kg i.v."
"C[N+]1(C)CCC(OC(=O)Nc2ccccc2-c2ccccc2)CC1.[I-] [Example 7, 4-[[N-(2-biphenylyl)carbamoyl]oxy]-1,1-dimethylpiperidinium iodide]",–,–,25.8,0.0054 mg/kg i.v.,–,–,"Ki [3, 8]: 14.7 nM; Ki [4, 9]: 0.57 nM"
"O=C(Nc1ccccc1-c1ccccc1)OC1CCN(Cc2cccc(O)c2)CC1.O=C(O)C(=O)O [Example 15, 1-(3-Hydroxybenzyl)-4-piperidyl N-(2-biphenylyl)carbamate monooxalate]",0.058 mg/kg i.v.,0.36 mg/kg i.v.,–,–,–,–,–
"CCN(CC)CC#CCOC(=O)C(O)(c1ccccc1)C1CCCCC1 (centres unmarked) [Oxybutynin, reference compound]",0.24 mg/kg i.v.,0.18 mg/kg i.v.,–,–,–,–,–
